# PMC9127750, “Structure-based design of CDC42 effector interaction inhibitors for the treatment of cancer” (Cell reports, 2022)
# Test system: WM3248 melanoma cells, 486 antibodies
# Experiment: Reverse phase protein arrays (RPPA);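 on RPPA AceCS1.R.V: ratio of treated to vehicle (0 µM) normalized linear protein signal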;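 on RPPA Akt1 pS473.R.V: ratio of treated to vehicle (0 µM) normalized linear protein signal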;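 on RPPA Akt1.R.V: ratio of treated to vehicle (0 µM) normalized linear protein signal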;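 on RPPA Ambra1 pS52.R.C: ratio of treated to vehicle (0 µM) normalized linear protein signal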;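 on RPPA Atg5.R.C: ratio of treated to vehicle (0 µM) normalized linear protein signal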;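 on RPPA Bim.R.V: ratio of treated to vehicle (0 µM) normalized linear protein signal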
# Format: cell-based, Human
# Settings: 5 uM
# From the text: Pellets were snap frozen in liquid nitrogen and shipped to MD Anderson Cancer Center core RPPA facility for RPPA analysis (Table S5). Three biological replicates for each sample were generated.
# Nomenclatures on the RPPA heatmaps: name_of_antibody.species_of_antibody.status_of_antibody. V - antibody validated; C - validation of antibody in progress; Q - antibody nonspecific; E – under evaluation; antibodies raised in M - mouse, G - goat, R - rabbit, or T - rat.
smiles,measurement,setting,value
"CN(C)c1cccc(Nc2cc(-c3ccccc3)nc(C3CCNCC3)n2)c1 [ARN22089, N1,N1-dimethyl-N3-(6-phenyl-2-(piperidin-4-yl)pyrimidin-4-yl)benzene-1,3-diamine]",RPPA AceCS1.R.V,B.1,1.006
same,RPPA Akt1.R.V,B.1,0.910
same,RPPA Akt1_pS473.R.V,B.1,0.894
same,RPPA Akt2.R.V,B.1,0.975
same,RPPA Akt2_pS474.R.C,B.1,1.016
same,RPPA Akt_pS473.R.V,B.1,0.899
same,RPPA Akt_pT308.R.V,B.1,0.827
same,RPPA Ambra1_pS52.R.C,B.1,0.978
same,RPPA Annexin.I.M.V,B.1,1.021
same,RPPA Atg3.R.V,B.1,0.935
same,RPPA Atg4B.R.C,B.1,0.930
same,RPPA Atg5.R.C,B.1,0.974
same,RPPA Atg7.R.V,B.1,0.761
same,RPPA Aurora.A.R.C,B.1,1.245
same,RPPA Aurora.ABC_pT288_pT232_pT198.R.C,B.1,0.869
same,RPPA Axl.R.V,B.1,0.622
same,RPPA B7.H3.R.C,B.1,0.992
same,RPPA B.Raf.R.C,B.1,0.902
same,RPPA BAP1.M.V,B.1,0.996
same,RPPA BCL2A1.R.V,B.1,0.908
same,RPPA BMK1.Erk5_pT218_Y220.R.V,B.1,1.119
same,RPPA BRCA1.M.C,B.1,0.934
same,RPPA BRD4.R.V,B.1,1.027
same,RPPA Bad_pS112.R.V,B.1,0.939
same,RPPA Bak.R.C,B.1,0.987
same,RPPA Bax.R.V,B.1,0.996
same,RPPA Bcl.xL.R.V,B.1,1.022
same,RPPA Beclin.R.C,B.1,1.111
same,RPPA BiP.GRP78.M.C,B.1,0.998
same,RPPA Bid.R.C,B.1,0.999
same,RPPA Bim.R.V,B.1,0.906
same,RPPA X4E.BP1.R.V,B.1,0.997
same,RPPA X4E.BP1_pS65.R.V,B.1,1.205
same,RPPA X4E.BP1_pT37_T46.R.V,B.1,1.170
same,RPPA X14.3.3.zeta.R.V,B.1,1.080
same,RPPA X14.3.3βR.V,B.1,1.052
same,RPPA X53BP1.R.V,B.1,0.907
same,RPPA b.Catenin.R.V,B.1,1.025
same,RPPA b.Catenin_pT41_S45.R.V,B.1,0.975
same,RPPA c.Abl.R.V,B.1,0.965
same,RPPA c.Abl_pY412.R.C,B.1,0.885
same,RPPA c.IAP2.R.C,B.1,1.018
same,RPPA PREX1.R.V Average,average of 3,1.056
same,RPPA PYGB.R.V Average,average of 3,0.877
same,RPPA PYGM.M.C Average,average of 3,0.831
same,RPPA Puma.R.C Average,average of 3,0.937
same,RPPA RBM15.R.V Average,average of 3,0.979
same,RPPA RIP3.R.C Average,average of 3,1.059
same,RPPA RIP.R.C Average,average of 3,0.875
same,RPPA RPA32.R.V Average,average of 3,0.880
same,RPPA RPA32_pS4_S8.R.C Average,average of 3,0.828
same,RPPA RRM1.R.C Average,average of 3,0.995
same,RPPA RRM2.R.C Average,average of 3,1.008
same,RPPA RSK1.R.V Average,average of 3,0.889
same,RPPA RSK.R.C Average,average of 3,1.023
same,RPPA Rab25.R.V Average,average of 3,1.051
same,RPPA Rad17_pS645.R.V Average,average of 3,1.079
same,RPPA Rad23A.R.C Average,average of 3,0.869
same,RPPA Rad50.R.V Average,average of 3,0.989
same,RPPA Rad51.R.C Average,average of 3,1.005
same,RPPA Raptor.R.V Average,average of 3,1.028
same,RPPA Rb_pS807_S811.R.V Average,average of 3,1.059
same,RPPA Rheb.M.C Average,average of 3,0.971
same,RPPA Rictor.R.C Average,average of 3,1.019
same,RPPA Rictor_pT1135.R.V Average,average of 3,1.106
same,RPPA S6_pS235_S236.R.V Average,average of 3,1.300
same,RPPA S6_pS240_S244.R.V Average,average of 3,1.738
same,RPPA SCD.M.V Average,average of 3,1.005
same,RPPA SDHA.R.V Average,average of 3,1.077
same,RPPA SF2.R.V Average,average of 3,1.028
same,RPPA SFRP1.R.V Average,average of 3,0.962
same,RPPA SGK1.R.V Average,average of 3,1.098
same,RPPA SGK3.R.V Average,average of 3,0.993
same,RPPA SHP2.R.V Average,average of 3,0.993
same,RPPA SHP.2_pY542.R.C Average,average of 3,0.941
same,RPPA SIRPαR.V Average,average of 3,0.994
same,RPPA SLC1A5.R.C Average,average of 3,0.898
same,RPPA SOD1.M.V Average,average of 3,1.002
same,RPPA SOD2.R.V Average,average of 3,1.033
same,RPPA SOX7.R.V Average,average of 3,0.921
same,RPPA STING.R.V Average,average of 3,1.006
